According to ChEMBL document CHEMBL6109144, “Discovery of New Difluorocyclobutyl Derivatives as Effective Glucagon-Like Peptide-1 Receptor Agonists with Reduced hERG Inhibitory Activities” (J Med Chem, 2025):

How the values were obtained:
[1] = molecular target: Glucagon-like peptide 1 receptor (Homo sapiens, UniProt P43220); assay: Agonist activity at N-terminal hemagglutinin-tagged human GLP-1R expressed in CHO cells co-transfected with pcDNA3.0 assessed as increase in intracellular cAMP accumulation incubated for 30 mins by microplate reader analysis; type: functional, cell-based
[2] = Cmax in Sprague-Dawley rat at 5 mg/kg, po measured up to 24 hrs by LC-MS/MS analysis; type: ADME, organism-based; details: in vivo
[3] = Observed apparent oral clearance in Sprague-Dawley rat at 5 mg/kg, po measured up to 24 hrs by LC-MS/MS analysis; type: ADME, organism-based; details: in vivo
[4] = Half life in Sprague-Dawley rat at 5 mg/kg, po measured up to 24 hrs by LC-MS/MS analysis; type: ADME, organism-based; details: in vivo
in vivo = details: Sprague-Dawley, rat, po, 5 mg/kg
[5] = AUC (0 to infinity) in Sprague-Dawley rat at 5 mg/kg, po measured up to 24 hrs by LC-MS/MS analysis; type: ADME, organism-based; details: in vivo
[6] = Fraction of the dose absorbed in Sprague-Dawley rat at 5 mg/kg, po measured up to 24 hrs by LC-MS/MS analysis; type: ADME, organism-based; details: in vivo, read-out: Fabs
hERG (KCNH2) [7] = molecular target: T1, hERG (KCNH2) (Homo sapiens, UniProt Q12809); assay: Inhibition of hERG at 1 uM at -80 mV holding potential by whole-cell patch clamp analysis relative to control; type: toxicity
hERG (KCNH2) [8] = molecular target: T1, hERG (KCNH2); assay: Inhibition of hERG at 10 uM at -80 mV holding potential by whole-cell patch clamp analysis relative to control; type: toxicity

Glucagon-like peptide 1 receptor, sequence (P43220 whole entry): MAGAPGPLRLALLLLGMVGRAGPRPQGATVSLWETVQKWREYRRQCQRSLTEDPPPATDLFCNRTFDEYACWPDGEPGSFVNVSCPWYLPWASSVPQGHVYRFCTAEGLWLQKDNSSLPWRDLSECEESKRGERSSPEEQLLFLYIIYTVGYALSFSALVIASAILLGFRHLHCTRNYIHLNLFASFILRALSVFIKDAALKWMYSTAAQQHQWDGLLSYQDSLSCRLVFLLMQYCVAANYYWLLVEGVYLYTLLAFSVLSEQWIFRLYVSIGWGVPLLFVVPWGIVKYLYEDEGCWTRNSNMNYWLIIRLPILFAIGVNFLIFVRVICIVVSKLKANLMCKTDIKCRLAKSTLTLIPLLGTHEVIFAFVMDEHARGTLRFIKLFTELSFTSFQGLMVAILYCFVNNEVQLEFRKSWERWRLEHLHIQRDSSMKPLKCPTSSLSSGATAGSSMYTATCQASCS
T1 sequence (Q12809 whole entry): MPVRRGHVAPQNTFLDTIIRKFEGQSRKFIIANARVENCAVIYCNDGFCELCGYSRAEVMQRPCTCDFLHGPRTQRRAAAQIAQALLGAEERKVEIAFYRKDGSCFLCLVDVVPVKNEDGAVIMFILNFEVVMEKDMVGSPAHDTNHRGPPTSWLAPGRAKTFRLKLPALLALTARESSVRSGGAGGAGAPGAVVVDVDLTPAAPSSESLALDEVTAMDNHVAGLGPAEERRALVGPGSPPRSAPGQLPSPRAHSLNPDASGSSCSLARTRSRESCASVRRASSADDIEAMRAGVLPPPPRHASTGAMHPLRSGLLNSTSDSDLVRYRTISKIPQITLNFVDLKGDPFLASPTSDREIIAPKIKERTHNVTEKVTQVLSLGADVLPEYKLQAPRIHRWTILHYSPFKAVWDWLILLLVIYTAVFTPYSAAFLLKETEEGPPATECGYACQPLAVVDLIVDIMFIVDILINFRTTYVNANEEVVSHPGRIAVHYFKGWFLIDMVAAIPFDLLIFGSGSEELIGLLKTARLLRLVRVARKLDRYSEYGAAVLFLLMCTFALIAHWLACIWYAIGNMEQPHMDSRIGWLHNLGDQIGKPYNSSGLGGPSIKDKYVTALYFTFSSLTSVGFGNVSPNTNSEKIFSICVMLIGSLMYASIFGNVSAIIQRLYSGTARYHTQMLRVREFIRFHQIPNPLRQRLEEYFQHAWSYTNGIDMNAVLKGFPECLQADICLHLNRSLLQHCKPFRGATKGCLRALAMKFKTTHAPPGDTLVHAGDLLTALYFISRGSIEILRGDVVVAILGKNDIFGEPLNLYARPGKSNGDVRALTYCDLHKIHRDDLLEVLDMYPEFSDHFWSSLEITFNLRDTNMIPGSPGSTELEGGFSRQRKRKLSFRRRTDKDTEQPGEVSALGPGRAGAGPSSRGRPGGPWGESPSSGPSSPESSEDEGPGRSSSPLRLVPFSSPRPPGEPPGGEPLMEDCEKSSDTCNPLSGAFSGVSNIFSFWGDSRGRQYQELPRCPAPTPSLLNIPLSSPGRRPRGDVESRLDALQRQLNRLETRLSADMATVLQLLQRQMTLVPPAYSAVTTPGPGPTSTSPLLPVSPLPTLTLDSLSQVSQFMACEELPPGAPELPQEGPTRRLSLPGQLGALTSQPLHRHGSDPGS

Compound | EC50 [1] [nM] | other results
Cc1nn(C)c2c(F)c(Cc3cccc(OC4CCN(Cc5nc6ccc(C(=O)O)nc6n5C[C@@H]5CCO5)CC4)n3)ccc12 | 1.74 | 
O=C(O)c1ccc2nc(CN3CCC(c4cccc(OCc5ccc(C6CC(F)(F)C6)cc5F)n4)CC3)n(C[C@@H]3CCO3)c2c1 | 0.088 | 
O=C(O)c1ccc2nc(CN3CC=C(c4cccc(OCc5ccc(CC(F)F)cc5F)n4)CC3)n(C[C@@H]3CCO3)c2n1 | 0.13 | 
COc1cc(C(=O)O)cc2c1nc(CN1CCC(c3cccc(OCc4ccc(C5CC(F)(F)C5)cc4F)n3)CC1)n2C[C@@H]1CCO1 | 0.016 | Cmax [2]: 20.2 ng/mL; CL/F [3]: 1490 mL/min/kg; half-life [4]: 1.5 h; Tmax at 24 h (in vivo): 1.67 h; AUC(0-inf) [5]: 61.8 ng·h/mL; Fa at 24 h [6]: 1.99%
O=C(O)c1ccc2nc(CN3CCC(Oc4cccc(COc5ccc(Cl)c6cc(F)oc56)n4)CC3)n(C[C@@H]3CCO3)c2c1 | 0.21 | 
Cn1ncc2ccc(Cc3cccc(OC4CCN(Cc5nc6ccc(C(=O)O)nc6n5C[C@@H]5CCO5)CC4)n3)c(F)c21 | 102 | 
O=C(O)c1cc(F)c2nc(CN3CC=C(c4cccc(OCc5ccc(CC(F)F)cc5F)n4)CC3)n(C[C@@H]3CCO3)c2c1 | 0.015 | 
CC1(c2ccc(COc3cccc(C4=CCN(Cc5nc6ccc(C(=O)O)cc6n5C[C@@H]5CCO5)CC4)n3)c(F)c2)CC(F)(F)C1 | 6.1 | 
O=C(O)c1ccc2nc(CN3CCC(c4cccc(OCc5ccc(CC(F)F)cc5F)n4)CC3)n(C[C@@H]3CCO3)c2c1 | 0.26 | 
CC1(c2ccc(COc3cccc(-c4ccc(Cc5nc6ccc(C(=O)O)cc6n5C[C@@H]5CCO5)c(F)c4)n3)c(F)c2)CC(F)(F)C1 | 3.1 | 
O=C(O)c1ccc2nc(CN3CCC(Oc4ccnc(Cc5ccc(Cl)c6ccoc56)n4)CC3)n(C[C@@H]3CCO3)c2n1 | 0.34 | 
Cn1ncc2ccc(Cc3cccc(OC4CCN(Cc5nc6c(F)cc(C(=O)O)cc6n5C[C@@H]5CCO5)CC4)n3)c(F)c21 | 0.96 | 
C[C@H]1CN(c2cccc(OCc3ccc(CC(F)F)cc3F)n2)CCN1Cc1nc2c(F)cc(C(=O)O)cc2n1C[C@@H]1CCO1 | 0.07 | 
O=C(O)c1ccc2nc(CN3CC=C(c4cccc(OCc5ccc(CC(F)(F)F)cc5F)n4)CC3)n(C[C@@H]3CCO3)c2n1 | 0.13 | 
CC1(c2ccc(COc3cccc(-c4ccc(Cc5nc6ccc(C(=O)O)nc6n5C[C@@H]5CCO5)c(F)c4)n3)c(F)c2)CC(F)(F)C1 | 2.64 | 
O=C(O)c1ccc2nc(CN3CCC(Oc4cccc(COc5cc(Cl)c6occc6c5)n4)CC3)n(C[C@@H]3CCO3)c2n1 | 3.62 | 
N#Cc1ccc(Cc2cccc(OC3CCN(Cc4nc5ccc(C(=O)O)nc5n4C[C@@H]4CCO4)CC3)n2)c2occc12 | 7.91 | 
Cn1ncc2ccc(Cc3cccc(OC4CCN(Cc5nc6sc(C(=O)O)cc6n5C[C@@H]5CCO5)CC4)n3)c(F)c21 | 77.1 | 
O=C(O)c1ccc2nc(CN3CCC(Oc4cccc(COc5ccc6c(Cl)nn(CC(F)F)c6c5F)n4)CC3)n(C[C@@H]3CCO3)c2n1 | 0.32 | 
CC1(c2ccc(COc3cccc(C4=CCN(Cc5nc6ccc(C(=O)O)nc6n5C[C@@H]5CCO5)CC4)n3)c(F)c2)CC(F)(F)C1 | 2.91 | 

Compound | EC50 [1] [nM] | other results
O=C(O)c1ccc2nc(CN3CCC(Oc4cccc(COc5ccc(Cl)c6ccoc56)n4)CC3)n(C[C@@H]3CCO3)c2n1 | 0.062 | Cmax [2]: 116 ng/mL; CL/F [3]: 448 mL/min/kg; Tmax at 24 h (in vivo): 0.5 h; inhibition at 1 µM (hERG (KCNH2) [7]): 1%; AUC(0-inf) [5]: 204 ng·h/mL; inhibition at 10 µM (hERG (KCNH2) [8]): 9.8%; Fa at 24 h [6]: 13.4%
O=C(O)c1cc(F)c2nc(CN3CCN(c4cccc(OCc5ccc(CC(F)F)cc5F)n4)CC3)n(C[C@@H]3CCO3)c2c1 | 0.086 | 
N#Cc1ccc(Cc2cccc(OC3CCN(Cc4nc5ccc(C(=O)O)cc5n4C[C@@H]4CCO4)CC3)n2)c(F)c1 | 1.14 | 
N#Cc1ccc(OCc2nccc(OC3CCN(Cc4nc5sc(C(=O)O)cc5n4C[C@@H]4CCO4)CC3)n2)c(F)c1 | 0.32 | 
O=C(O)c1ccc2nc(CN3CCC(Oc4cccc(Cc5ccc6cn[nH]c6c5F)n4)CC3)n(C[C@@H]3CCO3)c2n1 | 46.8 | 
O=C(O)c1ccc2nc(CN3CCC(Oc4cccc(Cc5ccc(Cl)c6occc56)n4)CC3)n(C[C@@H]3CCO3)c2n1 | 0.35 | 
N#Cc1ccc(OCc2cccc(OC3CCN(Cc4nc5ccc(C(=O)O)cc5n4C[C@@H]4CCO4)CC3)n2)c(OC(F)(F)F)c1 | 0.46 | 
COc1ccc(C(F)(F)F)cc1OCc1nccc(OC2CCN(Cc3nc4sc(C(=O)O)cc4n3C[C@@H]3CCO3)CC2)n1 | 19.4 | 
COc1cc2c(Cl)ccc(OCc3cccc(OC4CCN(Cc5nc6ccc(C(=O)O)cc6n5C[C@@H]5CCO5)CC4)n3)c2o1 | 0.2 | 
Cn1nc(Cl)c2ccc(OCc3cccc(OC4CCN(Cc5nc6ccc(C(=O)O)nc6n5C[C@@H]5CCO5)CC4)n3)c(F)c21 | 0.8 | 
O=C(O)c1cc(F)c2nc(CN3CCC(c4cccc(OCc5ccc(C6CC(F)(F)C6)cc5F)n4)CC3)n(C[C@@H]3CCO3)c2c1 | 0.026 | Cmax [2]: 65.6 ng/mL; CL/F [3]: 375 mL/min/kg; half-life [4]: 2.3 h; Tmax at 24 h (in vivo): 2 h; AUC(0-inf) [5]: 229 ng·h/mL; inhibition at 10 µM (hERG (KCNH2) [8]): 101%; Fa at 24 h [6]: 6.7%
COc1cc(C#N)ccc1OCc1nccc(OC2CCN(Cc3nc4sc(C(=O)O)cc4n3C[C@@H]3CCO3)CC2)n1 | 0.45 | 
O=C(O)c1cc(F)c2nc(CN3CCC(c4cccc(OCc5ccc(CC(F)(F)F)cc5F)n4)CC3)n(C[C@@H]3CCO3)c2c1 | 0.35 | 
O=C(O)c1ccc2nc(CN3CCC(Oc4cccc(Cc5ccc6cnn(CC(F)F)c6c5F)n4)CC3)n(C[C@@H]3CCO3)c2n1 | 3.36 | 
O=C(O)c1cc(F)c2nc(CN3CCC(c4cccc(OCc5ccc(CC(F)F)cc5F)n4)CC3)n(C[C@@H]3CCO3)c2c1 | 0.096 | 
O=C(O)c1cc(F)c2nc(CN3CC=C(c4cccc(OCc5ccc(CC(F)(F)F)cc5F)n4)CC3)n(C[C@@H]3CCO3)c2c1 | 0.096 | 
O=C(O)c1ccc2nc(CN3CCC(Oc4cccc(Cc5ccc(Cl)c6c5OCC6)n4)CC3)n(C[C@@H]3CCO3)c2c1 | 0.11 | 
O=C(O)c1cc2c(nc(CN3CCC(Oc4cccc(Cc5ccc6cnn(CC(F)F)c6c5)n4)CC3)n2C[C@@H]2CCO2)s1 | 14.6 | 
O=C(O)c1ccc2nc(CN3CCC(Oc4cccc(COc5ccc6cn[nH]c6c5)n4)CC3)n(C[C@@H]3CCO3)c2n1 | 0.84 | 
O=C(O)c1ccc2nc(CN3CCC(Oc4cccc(Cc5ccc(C6COC6)cc5)n4)CC3)n(C[C@@H]3CCO3)c2n1 | 55.7 | 

Further lines, with some results ahead:

EC50 [1] [nM] | Compound | other results
661 | Cn1ccc(-c2ccc(Cc3cccc(OC4CCN(Cc5nc6sc(C(=O)O)cc6n5C[C@@H]5CCO5)CC4)n3)cc2)n1 | 
16.9 | O=C(O)c1cc2c(nc(CN3CCC(Oc4cccc(Cc5ccc(-c6ccn(C(F)F)n6)cc5)n4)CC3)n2C[C@@H]2CCO2)s1 | 
0.91 | O=C(O)c1cc2c(nc(CN3CCC(Oc4cccc(COc5ccc(Cl)cc5)n4)CC3)n2C[C@@H]2CCO2)s1 | 
176 | O=C(O)c1cc2c(nc(CN3CCC(Oc4cccc(Cc5ccc6cn[nH]c6c5F)n4)CC3)n2C[C@@H]2CCO2)s1 | 
9.53 | O=C(O)c1cc2c(nc(CN3CCC(Oc4cccc(OCc5ccc(Cl)cc5)n4)CC3)n2C[C@@H]2CCO2)s1 | 
9.83 | N#Cc1ccc(COc2cccc(OC3CCN(Cc4nc5sc(C(=O)O)cc5n4C[C@@H]4CCO4)CC3)n2)c(F)c1 | 
96.8 | N#Cc1ccc(Cc2cccc(OC3CCN(Cc4nc5sc(C(=O)O)cc5n4C[C@@H]4CCO4)CC3)n2)c2occc12 | 
0.2 | O=C(O)c1cc2c(nc(CN3CCC(Oc4ccnc(COc5ccc(Cl)cc5F)n4)CC3)n2C[C@@H]2CCO2)s1 | 
87.7 | O=C(O)c1cc2c(nc(CN3CCC(Oc4cccc(Cc5ccccc5)n4)CC3)n2C[C@@H]2CCO2)s1 | 
1.76 | O=C(O)c1cc2c(nc(CN3CCC(Oc4cccc(COc5ccc(Cl)cc5F)n4)CC3)n2C[C@@H]2CCO2)s1 | 
5.47 | N#Cc1ccc(Cc2cccc(OC3CCN(Cc4nc5sc(C(=O)O)cc5n4C[C@@H]4CCO4)CC3)n2)cc1 | 
258 | Cn1ncc2ccc(Cc3cccc(OC4CCN(Cc5nc6sc(C(=O)O)cc6n5C[C@@H]5CCO5)CC4)n3)cc21 | 
81 | O=C(O)c1cc2c(nc(CN3CCC(Oc4cccc(Cc5ccccc5F)n4)CC3)n2C[C@@H]2CCO2)s1 | 
3.7 | O=C(O)c1cc2c(nc(CN3CCC(Oc4ccnc(COc5ccc(Cl)cc5)n4)CC3)n2C[C@@H]2CCO2)s1 | 
396 | O=C(O)c1cc2c(nc(CN3CCC(Oc4nccc(Cc5ccc(Cl)cc5)n4)CC3)n2C[C@@H]2CCO2)s1 | 
70 | O=C(O)c1cc2c(nc(CN3CCC(Oc4cccc(Cc5ccc(Cl)c6ccoc56)n4)CC3)n2C[C@@H]2CCO2)s1 | 
3.75 | O=C(O)c1cc2c(nc(CN3CCC(Oc4cccc(Cc5ccc(Cl)cc5F)n4)CC3)n2C[C@@H]2CCO2)s1 | 
2.66 | O=C(O)c1cc2c(nc(CN3CCC(Oc4cccc(Cc5ccc(Cl)cc5)n4)CC3)n2C[C@@H]2CCO2)s1 | 
20.4 | COc1ccc(Cc2cccc(OC3CCN(Cc4nc5sc(C(=O)O)cc5n4C[C@@H]4CCO4)CC3)n2)cc1 | 
0.79 | O=C(O)c1cc2c(nc(CN3CCC(Oc4ccnc(Cc5ccc(Cl)cc5)n4)CC3)n2C[C@@H]2CCO2)s1 | 
9.81 | N#Cc1ccc(Cc2cccc(OC3CCN(Cc4nc5sc(C(=O)O)cc5n4C[C@@H]4CCO4)CC3)n2)c(F)c1 | 
1.84 | O=C(O)c1cc2c(nc(CN3CCC(Oc4ccnc(Cc5ccc(Cl)c6ccoc56)n4)CC3)n2C[C@@H]2CCO2)s1 | 
0.52 | N#Cc1ccc(OCc2cccc(OC3CCN(Cc4nc5sc(C(=O)O)cc5n4C[C@@H]4CCO4)CC3)n2)c(F)c1 | inhibition at 10 µM (hERG (KCNH2) [8]): 0.9%
